These results are taken from US20190151312A1, “HEPARAN SULFATE BIOSYNTHESIS INHIBITORS FOR THE TREATMENT OF DISEASES” (BioMarin Pharmaceutical Inc., priority 2014, published 2019).

Structures are written as SMILES. Where two headings read alike, the source gives them in different places.

As usually defined, the IC50 is the point on the concentration scale where inhibition reaches its midpoint.

The test deals with GM01896 cells (MPS II dermal fibroblasts). Description: Assay 1: MPS cellular assay, MPS II (heparan sulfate disaccharide biomarkers by LC-MS). The format is cell-based, human. Conditions: Assay 1 for MPS II, heparan sulfate disaccharide biomarkers (I2a4, I2a6, I2S0 and/or I2S6), read-out: IC50 Range. Summed up:
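MPS II patient dermal fibroblasts (GM01896) treated with compound at ≤30 μM for 4 to 21 days. Heparan sulfate GAGs isolated by anion exchange, digested with heparinases I-III, aniline-tagged against [13C6]aniline standards and quantified by LC-MS; IC50 from curve fitting. Viability monitored by alamar blue or ATP.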

Turning to `CN1CCN(CCCn2ncc3ccc(-c4cc(Nc5ccc(Cl)cc5)nc(N5CCOCC5)n4)cc32)CC1` [(4-chlorophenyl)(6-{1-[3-(4-methylpiperazinyl)propyl](1H-indazol-6-yl)}-2-morpholin-4-ylpyrimidin-4-yl)amine], the IC50 (Homo sapiens, Fibroblast) was in the range of 0.5 to 1 µM.
Consider `CNC(=O)c1ccc(Nc2cc(-c3ccc4c(c3)ncn4C3CC3)nc(N3CCOCC3)n2)cc1` [(4-{[6-(1-cyclopropylbenzimidazol-5-yl)-2-morpholin-4-ylpyrimidin-4-yl]amino}phenyl)-N-methylcarboxamide], for which the IC50 (Homo sapiens, Fibroblast) is 0.5 to 1 µM.
On the same count and under the same terms, the figure for `Cn1ncc2ccc(-c3cc(Nc4ccc(-c5ncc[nH]5)cc4)nc(N4CCOCC4)n3)cc21` [(4-imidazol-2-ylphenyl)[6-(1-methyl(1H-indazol-6-yl))-2-morpholin-4-ylpyrimidin-4-yl]amine] is below 0.5 µM.
Still for that read-out and setting: the figure for `Cc1nn(C)c2cc(-c3cc(Nc4ccc(-c5nnc[nH]5)cc4)nc(N4CCOCC4)n3)cnc12` [(4-(4H-1,2,4-triazol-3-yl)phenyl)[6-(1,3-dimethylpyrazolo[4,5-b]pyridin-6-yl)-2-morpholin-4-ylpyrimidin-4-yl]amine] is below 0.5 µM; for `CN1NC=C2CC=C(c3cc(Nc4ccc(C(N)=O)cc4)nc(N4CCOCC4)n3)C=C21` [4-((6-(1-methyl-4H-indazol-6-yl)-2-morpholinopyrimidin-4-yl)amino)benzamide] it is 0.5 to 1 µM; for `Clc1ccc(Nc2cc(-c3ccc4ncn(C5COC5)c4c3)nc(N3CCOCC3)n2)cc1` [(4-chlorophenyl)[2-morpholin-4-yl-6-(1-oxetan-3-ylbenzimidazol-6-yl)pyrimidin-4-yl]amine] it is below 0.5 µM.
For the compound `Cc1nn(C)c2cc(-c3cc(Nc4ccc(-c5c[nH]cn5)cc4)nc(N4CCOCC4)n3)ccc12` [[6-(1,3-dimethyl(1H-indazol-6-yl))-2-morpholin-4-ylpyrimidin-4-yl](4-imidazol-4-ylphenyl)amine], the IC50 (Homo sapiens, Fibroblast) was in the range of 1 to 5 µM.
Consider `Clc1ccc(Nc2cc(-c3ccc4ncn(C5CCC5)c4c3)nc(N3CCOCC3)n2)cc1` [(4-chlorophenyl)[6-(1-cyclobutylbenzimidazol-6-yl)-2-morpholin-4-ylpyrimidin-4-yl]amine], for which, under “Homo sapiens, Fibroblast”, the half-inhibitory concentration (IC50) was in the range of 0.5 to 1 µM.
Consider `CC(=O)Nc1ccc(Nc2cc(-c3ccc4cnn(C)c4c3)nc(N3CCOCC3)n2)cc1` [N-(4-{[6-(1-methyl(1H-indazol-6-yl))-2-morpholin-4-ylpyrimidin-4-yl]amino}phenyl)acetamide], for which the IC50 (Homo sapiens, Fibroblast) fell in the range of 0.5 to 1 µM.
On the same count and under the same terms, in the case of `Clc1ccc(Nc2cc(-c3ccc4[nH]ncc4c3)nc(N3CCOCC3)n2)cc1` [N-(4-chlorophenyl)-6-(1H-indazol-5-yl)-2-morpholinopyrimidin-4-amine] it was 1 to 5 µM.
Same read-out and setting: the figure for `Cc1nnc(-c2ccc(Nc3cc(-c4ccc5cnn(CCN6CCOCC6)c5c4)nc(N4CCOCC4)n3)cc2)[nH]1` [[4-(5-methyl(4H-1,2,4-triazol-3-yl))phenyl]{2-morpholin-4-yl-6-[1-(2-morpholin-4-ylethyl)(1H-indazol-6-yl)]pyrimidin-4-yl}amine] is below 0.5 µM; for `CN(C)CCn1cc2ccc(-c3cc(Nc4ccc(Cl)cc4)nc(N4CCOCC4)n3)cc2n1` [[2-(6-{6-[(4-chlorophenyl)amino]-2-morpholin-4-ylpyrimidin-4-yl}(2H-indazol-2-yl))ethyl]dimethylamine] it is 0.5 to 1 µM.
Still for that read-out and setting: the figure for `Cn1nc(CCN2CCOCC2)c2cc(F)c(-c3cc(Nc4ccc(Cl)cc4)nc(N4CCOCC4)n3)cc21` [(4-chlorophenyl){6-[5-fluoro-1-methyl-3-(2-morpholin-4-ylethyl)(1H-indazol-6-yl)]-2-morpholin-4-ylpyrimidin-4-yl}amine] is 0.5 to 1 µM; for `Cc1cnn(-c2ccc(Nc3cc(-c4ccc5cnn(C)c5c4)nc(N4CCOCC4)n3)cc2)n1` [[4-(4-methyl(1,2,3-triazol-2-yl))phenyl][6-(1-methyl(1H-indazol-6-yl))-2-morpholin-4-ylpyrimidin-4-yl]amine] it is below 0.5 µM; for `Clc1ccc(Nc2cc(-c3ccc4cnn(C5CCC5)c4c3)nc(N3CCOCC3)n2)cc1` [(4-chlorophenyl)[6-(1-cyclobutyl(1H-indazol-6-yl))-2-morpholin-4-ylpyrimidin-4-yl]amine] it is 1 to 5 µM.
With `Cc1nc2cc(-c3cc(Nc4ccc(Cl)cc4)nc(N4CCOCC4)n3)ccc2n1CCN1CCOCC1` [(4-chlorophenyl){6-[2-methyl-1-(2-morpholin-4-ylethyl)benzimidazol-5-yl]-2-morpholin-4-ylpyrimidin-4-yl}amine], the IC50 (Homo sapiens, Fibroblast) lay within 1 to 5 µM.
`Cc1ccc(Nc2cc(-c3ccc4ncn(C)c4c3)nc(N3CCOCC3)n2)cc1` [[6-(1-methylbenzimidazol-6-yl)-2-morpholin-4-ylpyrimidin-4-yl](4-methylphenyl)amine]: the IC50 (Homo sapiens, Fibroblast) was 1 to 5 µM.
`Cc1nn(-c2ccc(Nc3cc(-c4ccc5c(C)nn(C)c5c4)nc(N4CCOCC4)n3)cc2)nc1C` [[4-(4,5-dimethyl(1,2,3-triazol-2-yl))phenyl][6-(1,3-dimethyl(1H-indazol-6-yl))-2-morpholin-4-ylpyrimidin-4-yl]amine]: for the setting “Homo sapiens, Fibroblast”, the IC50 is 1 to 5 µM.
Still for that read-out and setting: in the case of `Cc1nn(C)c2cc(-c3cc(Nc4ccc(-c5nnc[nH]5)cc4)nc(N4CCOCC4)n3)ccc12` [(4-(4H-1,2,4-triazol-3-yl)phenyl)[6-(1,3-dimethyl(1H-indazol-6-yl))-2-morpholin-4-ylpyrimidin-4-yl]amine] it was below 0.5 µM; in that of `Cn1nc(CCN2CCOCC2)c2ccc(-c3cc(Nc4ccc(-c5nnc(C6CC6)[nH]5)cc4)nc(N4CCOCC4)n3)cc21` [[4-(5-cyclopropyl(4H-1,2,4-triazol-3-yl))phenyl]{6-[1-methyl-3-(2-morpholin-4-ylethyl)(1H-indazol-6-yl)]-2-morpholin-4-ylpyrimidin-4-yl}amine], below 0.5 µM.
Same read-out and setting: the figure for `Cn1nc(CCN2CCOCC2)c2ccc(-c3cc(Nc4ccc5cc[nH]c5c4)nc(N4CCOCC4)n3)cc21` [indol-6-yl{6-[1-methyl-3-(2-morpholin-4-ylethyl)(1H-indazol-6-yl)]-2-morpholin-4-ylpyrimidin-4-yl}amine] is 0.5 to 1 µM.
For `Cn1c(=O)n(C)c2cc(-c3cc(Nc4ccc(Cl)cc4)nc(N4CCOCC4)n3)ccc21` [5-{6-[(4-chlorophenyl)amino]-2-morpholin-4-ylpyrimidin-4-yl}-1,3-dimethyl-3-hydrobenzimidazol-2-one], the IC50 is below 0.5 µM.
Regarding `Cc1nc2ccc(-c3cc(Nc4ccc5ccn(C)c5c4)nc(N4CCOCC4)n3)cc2n1CC1CC1` [{6-[1-(cyclopropylmethyl)-2-methylbenzimidazol-6-yl]-2-morpholin-4-ylpyrimidin-4-yl}(1-methylindol-6-yl)amine], the IC50 (Homo sapiens, Fibroblast) was below 0.5 µM.
Still for that read-out and setting: in the case of `COc1ccc(Nc2cc(-c3ccc4cnn(C)c4c3)nc(N3CCOCC3)n2)cc1` [(4-methoxyphenyl)[6-(1-methyl(1H-indazol-6-yl))-2-morpholin-4-ylpyrimidin-4-yl]amine] it was 1 to 5 µM.
Still for that read-out and setting: in the case of `CNC(=O)c1ccc(Nc2cc(-c3ccc4nc(C)n(C)c4c3)nc(N3CCOCC3)n2)cc1` [(4-{[6-(1,2-dimethylbenzimidazol-6-yl)-2-morpholin-4-ylpyrimidin-4-yl]amino}phenyl)-N-methylcarboxamide] it was below 0.5 µM; in that of `Clc1ccc(Nc2cc(-c3ccc4nn(CC5CC5)cc4c3)nc(N3CCOCC3)n2)cc1` [(4-chlorophenyl){6-[2-(cyclopropylmethyl)(2H-indazol-5-yl)]-2-morpholin-4-ylpyrimidin-4-yl}amine], 1 to 5 µM.
